# Active and inactive are the calls of the source. The rule behind the calls is not given here.
# System: MCF7
# Experiment: Growth inhibition of human MCF7 cells at 10^-5 M incubated for 48 hrs by sulforhodamine B assay relative to control
# Type: functional
# Details: not given
row,SMILES,growth inhibition (GI)
1,COc1ccc2nc(Cl)c(Cn3nnnc3CSc3ccccc3)cc2c1,Active

# System: RXF 393
# Experiment: Growth inhibition of human RXF393 cells at 10^-5 M incubated for 48 hrs by sulforhodamine B assay relative to control
# Type: functional
# Details: not given
row,SMILES,growth inhibition (GI)
1,COc1ccc2nc(Cl)c(Cn3nnnc3CSc3ccccc3)cc2c1,Active

# System: OVCAR-3
# Experiment: Growth inhibition of human OVCAR3 cells at 10^-5 M incubated for 48 hrs by sulforhodamine B assay relative to control
# Type: functional
# Details: not given
row,SMILES,growth inhibition (GI)
1,COc1ccc2nc(Cl)c(Cn3nnnc3CSc3ccccc3)cc2c1,Active

# System: HCT-15
# Experiment: Growth inhibition of human HCT15 cells at 10^-5 M incubated for 48 hrs by sulforhodamine B assay relative to control
# Type: functional
# Details: not given
row,SMILES,growth inhibition (GI)
1,COc1ccc2nc(Cl)c(Cn3nnnc3CSc3ccccc3)cc2c1,Active

# System: HCC 2998
# Experiment: Growth inhibition of human HCC2998 cells at 10^-5 M incubated for 48 hrs by sulforhodamine B assay relative to control
# Type: functional
# Details: not given
row,SMILES,growth inhibition (GI)
1,COc1ccc2nc(Cl)c(Cn3nnnc3CSc3ccccc3)cc2c1,Active

# System: MDA-MB-231
# Experiment: Growth inhibition of human MDA-MB-231/ATCC cells at 10^-5 M incubated for 48 hrs by sulforhodamine B assay relative to control
# Type: functional
# Details: not given
row,SMILES,growth inhibition (GI)
1,COc1ccc2nc(Cl)c(Cn3nnnc3CSc3ccccc3)cc2c1,Active

# System: KM12
# Experiment: Growth inhibition of human KM12 cells at 10^-5 M incubated for 48 hrs by sulforhodamine B assay relative to control
# Type: functional
# Details: not given
row,SMILES,growth inhibition (GI)
1,COc1ccc2nc(Cl)c(Cn3nnnc3CSc3ccccc3)cc2c1,Active

# System: LOX IMVI
# Experiment: Growth inhibition of human LOXIMVI cells at 10^-5 M incubated for 48 hrs by sulforhodamine B assay relative to control
# Type: functional
# Details: not given
row,SMILES,growth inhibition (GI)
1,COc1ccc2nc(Cl)c(Cn3nnnc3CSc3ccccc3)cc2c1,Active

# System: UACC-257
# Experiment: Growth inhibition of human UACC257 cells at 10^-5 M incubated for 48 hrs by sulforhodamine B assay relative to control
# Type: functional
# Details: not given
row,SMILES,growth inhibition (GI)
1,COc1ccc2nc(Cl)c(Cn3nnnc3CSc3ccccc3)cc2c1,Active

# System: SK-MEL-28
# Experiment: Growth inhibition of human SK-MEL-28 cells at 10^-5 M incubated for 48 hrs by sulforhodamine B assay relative to control
# Type: functional
# Details: not given
row,SMILES,growth inhibition (GI)
1,COc1ccc2nc(Cl)c(Cn3nnnc3CSc3ccccc3)cc2c1,Active

# System: T47D
# Experiment: Growth inhibition of human T47D cells at 10^-5 M incubated for 48 hrs by sulforhodamine B assay relative to control
# Type: functional
# Details: not given
row,SMILES,growth inhibition (GI)
1,COc1ccc2nc(Cl)c(Cn3nnnc3CSc3ccccc3)cc2c1,Active

# System: MOLT-4
# Experiment: Growth inhibition of human MOLT4 cells at 10^-5 M incubated for 48 hrs by sulforhodamine B assay relative to control
# Type: functional
# Details: not given
row,SMILES,growth inhibition (GI)
1,COc1ccc2nc(Cl)c(Cn3nnnc3CSc3ccccc3)cc2c1,Active

# System: Candida albicans
# Experiment: Antifungal activity against Candida albicans after 24 hrs by serial dilution method
# Type: functional
# Details: not given
row,SMILES,MIC
1,COc1ccc2nc(Cl)c(Cn3nnnc3CSc3ccccc3)cc2c1,25 µg/mL

# System: SNB-19
# Experiment: Growth inhibition of human SNB19 cells at 10^-5 M incubated for 48 hrs by sulforhodamine B assay relative to control
# Type: functional
# Details: not given
row,SMILES,growth inhibition (GI)
1,COc1ccc2nc(Cl)c(Cn3nnnc3CSc3ccccc3)cc2c1,Active

# System: A549
# Experiment: Growth inhibition of human A549/ATCC cells at 10^-5 M incubated for 48 hrs by sulforhodamine B assay relative to control
# Type: functional
# Details: not given
row,SMILES,growth inhibition (GI)
1,COc1ccc2nc(Cl)c(Cn3nnnc3CSc3ccccc3)cc2c1,Active

# System: BT-549
# Experiment: Growth inhibition of human BT549 cells at 10^-5 M incubated for 48 hrs by sulforhodamine B assay relative to control
# Type: functional
# Details: not given
row,SMILES,growth inhibition (GI)
1,COc1ccc2nc(Cl)c(Cn3nnnc3CSc3ccccc3)cc2c1,Active

# System: UO-31
# Experiment: Growth inhibition of human UO31 cells at 10^-5 M incubated for 48 hrs by sulforhodamine B assay relative to control
# Type: functional
# Details: not given
row,SMILES,growth inhibition (GI)
1,COc1ccc2nc(Cl)c(Cn3nnnc3CSc3ccccc3)cc2c1,Active

# System: SK-OV-3
# Experiment: Growth inhibition of human SKOV3 cells at 10^-5 M incubated for 48 hrs by sulforhodamine B assay relative to control
# Type: functional
# Details: not given
row,SMILES,growth inhibition (GI)
1,COc1ccc2nc(Cl)c(Cn3nnnc3CSc3ccccc3)cc2c1,Active

# System: HT-29
# Experiment: Growth inhibition of human HT-29 cells at 10^-5 M incubated for 48 hrs by sulforhodamine B assay relative to control
# Type: functional
# Details: not given
row,SMILES,growth inhibition (GI)
1,COc1ccc2nc(Cl)c(Cn3nnnc3CSc3ccccc3)cc2c1,Active

# System: Aspergillus fumigatus
# Experiment: Antifungal activity against Aspergillus fumigatus after 24 hrs by serial dilution method
# Type: functional
# Details: not given
row,SMILES,MIC
1,COc1ccc2nc(Cl)c(Cn3nnnc3CSc3ccccc3)cc2c1,10 µg/mL

# System: SR
# Experiment: Growth inhibition of human SR cells at 10^-5 M incubated for 48 hrs by sulforhodamine B assay relative to control
# Type: functional
# Details: not given
row,SMILES,growth inhibition (GI)
1,COc1ccc2nc(Cl)c(Cn3nnnc3CSc3ccccc3)cc2c1,Active

# System: Hs-578T
# Experiment: Growth inhibition of human Hs 578T cells at 10^-5 M incubated for 48 hrs by sulforhodamine B assay relative to control
# Type: functional
# Details: not given
row,SMILES,growth inhibition (GI)
1,COc1ccc2nc(Cl)c(Cn3nnnc3CSc3ccccc3)cc2c1,Active

# System: NCI-H23
# Experiment: Growth inhibition of human NCI-H23 cells at 10^-5 M incubated for 48 hrs by sulforhodamine B assay relative to control
# Type: functional
# Details: not given
row,SMILES,growth inhibition (GI)
1,COc1ccc2nc(Cl)c(Cn3nnnc3CSc3ccccc3)cc2c1,Active

# System: SF-268
# Experiment: Growth inhibition of human SF268 cells at 10^-5 M incubated for 48 hrs by sulforhodamine B assay relative to control
# Type: functional
# Details: not given
row,SMILES,growth inhibition (GI)
1,COc1ccc2nc(Cl)c(Cn3nnnc3CSc3ccccc3)cc2c1,Active

# System: SK-MEL-5
# Experiment: Growth inhibition of human SK-MEL-5 cells at 10^-5 M incubated for 48 hrs by sulforhodamine B assay relative to control
# Type: functional
# Details: not given
row,SMILES,growth inhibition (GI)
1,COc1ccc2nc(Cl)c(Cn3nnnc3CSc3ccccc3)cc2c1,Active

# System: SF-539
# Experiment: Growth inhibition of human SF539 cells at 10^-5 M incubated for 48 hrs by sulforhodamine B assay relative to control
# Type: functional
# Details: not given
row,SMILES,growth inhibition (GI)
1,COc1ccc2nc(Cl)c(Cn3nnnc3CSc3ccccc3)cc2c1,Active

# System: SNB-75
# Experiment: Growth inhibition of human SNB75 cells at 10^-5 M incubated for 48 hrs by sulforhodamine B assay relative to control
# Type: functional
# Details: not given
row,SMILES,growth inhibition (GI)
1,COc1ccc2nc(Cl)c(Cn3nnnc3CSc3ccccc3)cc2c1,Active

# System: OVCAR-5
# Experiment: Growth inhibition of human OVCAR5 cells at 10^-5 M incubated for 48 hrs by sulforhodamine B assay relative to control
# Type: functional
# Details: not given
row,SMILES,growth inhibition (GI)
1,COc1ccc2nc(Cl)c(Cn3nnnc3CSc3ccccc3)cc2c1,Active

# System: UACC-62
# Experiment: Growth inhibition of human UACC62 cells at 10^-5 M incubated for 48 hrs by sulforhodamine B assay relative to control
# Type: functional
# Details: not given
row,SMILES,growth inhibition (GI)
1,COc1ccc2nc(Cl)c(Cn3nnnc3CSc3ccccc3)cc2c1,Active

# System: OVCAR-4
# Experiment: Growth inhibition of human OVCAR4 cells at 10^-5 M incubated for 48 hrs by sulforhodamine B assay relative to control
# Type: functional
# Details: not given
row,SMILES,growth inhibition (GI)
1,COc1ccc2nc(Cl)c(Cn3nnnc3CSc3ccccc3)cc2c1,Active

# System: OVCAR-8
# Experiment: Growth inhibition of human OVCAR8 cells at 10^-5 M incubated for 48 hrs by sulforhodamine B assay relative to control
# Type: functional
# Details: not given
row,SMILES,growth inhibition (GI)
1,COc1ccc2nc(Cl)c(Cn3nnnc3CSc3ccccc3)cc2c1,Active

# System: NCI-H226
# Experiment: Growth inhibition of human NCI-H226 cells at 10^-5 M incubated for 48 hrs by sulforhodamine B assay relative to control
# Type: functional
# Details: not given
row,SMILES,growth inhibition (GI)
1,COc1ccc2nc(Cl)c(Cn3nnnc3CSc3ccccc3)cc2c1,Active

# System: Aspergillus fumigatus
# Experiment: Antifungal activity against Aspergillus fumigatus at 100 ug/ml by disc diffusion method
# Type: functional
# Details: read-out: IZ
row,SMILES,zone of inhibition at 100 µg/mL
1,COc1ccc2nc(Cl)c(Cn3nnnc3CSc3ccccc3)cc2c1,18 mm

# System: COLO 205
# Experiment: Growth inhibition of human COLO205 cells at 10^-5 M incubated for 48 hrs by sulforhodamine B assay relative to control
# Type: functional
# Details: not given
row,SMILES,growth inhibition (GI)
1,COc1ccc2nc(Cl)c(Cn3nnnc3CSc3ccccc3)cc2c1,Active

# System: TK-10
# Experiment: Growth inhibition of human TK10 cells at 10^-5 M incubated for 48 hrs by sulforhodamine B assay relative to control
# Type: functional
# Details: not given
row,SMILES,growth inhibition (GI)
1,COc1ccc2nc(Cl)c(Cn3nnnc3CSc3ccccc3)cc2c1,Active

# System: K562
# Experiment: Growth inhibition of human K562 cells at 10^-5 M incubated for 48 hrs by sulforhodamine B assay relative to control
# Type: functional
# Details: not given
row,SMILES,growth inhibition (GI)
1,COc1ccc2nc(Cl)c(Cn3nnnc3CSc3ccccc3)cc2c1,Active

# System: U-251
# Experiment: Growth inhibition of human U251 cells at 10^-5 M incubated for 48 hrs by sulforhodamine B assay relative to control
# Type: functional
# Details: not given
row,SMILES,growth inhibition (GI)
1,COc1ccc2nc(Cl)c(Cn3nnnc3CSc3ccccc3)cc2c1,Active

# System: SW-620
# Experiment: Growth inhibition of human SW620 cells at 10^-5 M incubated for 48 hrs by sulforhodamine B assay relative to control
# Type: functional
# Details: not given
row,SMILES,growth inhibition (GI)
1,COc1ccc2nc(Cl)c(Cn3nnnc3CSc3ccccc3)cc2c1,Active

# System: 786-0
# Experiment: Growth inhibition of human 786-0 cells at 10^-5 M incubated for 48 hrs by sulforhodamine B assay relative to control
# Type: functional
# Details: not given
row,SMILES,growth inhibition (GI)
1,COc1ccc2nc(Cl)c(Cn3nnnc3CSc3ccccc3)cc2c1,Active

# System: SF-295
# Experiment: Growth inhibition of human SF295 cells at 10^-5 M incubated for 48 hrs by sulforhodamine B assay relative to control
# Type: functional
# Details: not given
row,SMILES,growth inhibition (GI)
1,COc1ccc2nc(Cl)c(Cn3nnnc3CSc3ccccc3)cc2c1,Active

# System: EKVX
# Experiment: Growth inhibition of human EKVX cells at 10^-5 M incubated for 48 hrs by sulforhodamine B assay relative to control
# Type: functional
# Details: not given
row,SMILES,growth inhibition (GI)
1,COc1ccc2nc(Cl)c(Cn3nnnc3CSc3ccccc3)cc2c1,Active

# System: SN12C
# Experiment: Growth inhibition of human SN12C cells at 10^-5 M incubated for 48 hrs by sulforhodamine B assay relative to control
# Type: functional
# Details: not given
row,SMILES,growth inhibition (GI)
1,COc1ccc2nc(Cl)c(Cn3nnnc3CSc3ccccc3)cc2c1,Active

# System: HL-60(TB)
# Experiment: Growth inhibition of human HL-60(TB) cells at 10^-5 M incubated for 48 hrs by sulforhodamine B assay relative to control
# Type: functional
# Details: not given
row,SMILES,growth inhibition (GI)
1,COc1ccc2nc(Cl)c(Cn3nnnc3CSc3ccccc3)cc2c1,Active

# System: ACHN
# Experiment: Growth inhibition of human ACHN cells at 10^-5 M incubated for 48 hrs by sulforhodamine B assay relative to control
# Type: functional
# Details: not given
row,SMILES,growth inhibition (GI)
1,COc1ccc2nc(Cl)c(Cn3nnnc3CSc3ccccc3)cc2c1,Active

# System: M14
# Experiment: Growth inhibition of human M14 cells at 10^-5 M incubated for 48 hrs by sulforhodamine B assay relative to control
# Type: functional
# Details: not given
row,SMILES,growth inhibition (GI)
1,COc1ccc2nc(Cl)c(Cn3nnnc3CSc3ccccc3)cc2c1,Active

# Reference: ChEMBL document CHEMBL4004849, “Tetrazolylmethyl quinolines: Design, docking studies, synthesis, anticancer and antifungal analyses” (2017)
